Source: patent US20200331850A1, “NOVEL SULFONAMIDE CARBOXAMIDE COMPOUNDS” (Inflazome Limited, priority 2017, published 2020)
Counter-ions that a name gives are not always drawn.

Target: T1, NLRP3 (Homo sapiens, UniProt Q96P20)
Assay: Human whole blood IL1β release assay (LPS + nigericin, AlphaLisa IL-1β)
Format: cell-based
Design: Plate out 80 μl of whole blood containing 1βg/ml of LPS in 96-well, clear bottom cell culture plate; from tissue; host or cells: human whole blood from healthy donors, LPS-primed and nigericin-stimulated
Details: NLRP3 inhibitory activity in human whole blood, IL-1β release, 10 μM nigericin, read-out: HWB IC50
Protocol: For systemic delivery, the ability to inhibit NLRP3 when the compounds are present within the bloodstream is of great importance. For this reason, the NLRP3 inhibitory activity of a number of compounds in human whole blood was investigated in accordance with the following protocol.
Human whole blood in Li-heparin tubes was obtained from healthy donors from a volunteer donor panel. • 1. Plate out 80 μl of whole blood containing 1βg/ml of LPS in 96-well, clear bottom cell culture plate (Corning #3585) • 2. Add 10 μl compound (8 points half-log dilution with 10 μM top dose) or vehicle (DMSO 0.1% FAC) to the appropriate wells • 3. Incubate for 3 hrs at 37° C., 5% CO2 • 4. Add 10 μl Nigericin (Sigma # N7143) (10 μM FAC) to all wells • 5. Incubate for 1 hr at 37° C., 5% CO2 • 6. At the end of the incubation period, spin plates at 300×g for 5 mins to pellet cells and remove 20 μl of supernatant and add to 96-well v-bottom plates for IL-1β analysis (note: these plates containing the supernatants can be stored at −80° C. to be analysed at a later date) • 7. IL-1β was measured according to the manufacturer protocol (Perkin Elmer-AlphaLisa IL-1 Kit AL220F-5000) • 8. IC50 data is fitted to a non-linear regression equation (log inhibitor vs response-variable slope 4-parameters)

T1 sequence (Q96P20 whole entry): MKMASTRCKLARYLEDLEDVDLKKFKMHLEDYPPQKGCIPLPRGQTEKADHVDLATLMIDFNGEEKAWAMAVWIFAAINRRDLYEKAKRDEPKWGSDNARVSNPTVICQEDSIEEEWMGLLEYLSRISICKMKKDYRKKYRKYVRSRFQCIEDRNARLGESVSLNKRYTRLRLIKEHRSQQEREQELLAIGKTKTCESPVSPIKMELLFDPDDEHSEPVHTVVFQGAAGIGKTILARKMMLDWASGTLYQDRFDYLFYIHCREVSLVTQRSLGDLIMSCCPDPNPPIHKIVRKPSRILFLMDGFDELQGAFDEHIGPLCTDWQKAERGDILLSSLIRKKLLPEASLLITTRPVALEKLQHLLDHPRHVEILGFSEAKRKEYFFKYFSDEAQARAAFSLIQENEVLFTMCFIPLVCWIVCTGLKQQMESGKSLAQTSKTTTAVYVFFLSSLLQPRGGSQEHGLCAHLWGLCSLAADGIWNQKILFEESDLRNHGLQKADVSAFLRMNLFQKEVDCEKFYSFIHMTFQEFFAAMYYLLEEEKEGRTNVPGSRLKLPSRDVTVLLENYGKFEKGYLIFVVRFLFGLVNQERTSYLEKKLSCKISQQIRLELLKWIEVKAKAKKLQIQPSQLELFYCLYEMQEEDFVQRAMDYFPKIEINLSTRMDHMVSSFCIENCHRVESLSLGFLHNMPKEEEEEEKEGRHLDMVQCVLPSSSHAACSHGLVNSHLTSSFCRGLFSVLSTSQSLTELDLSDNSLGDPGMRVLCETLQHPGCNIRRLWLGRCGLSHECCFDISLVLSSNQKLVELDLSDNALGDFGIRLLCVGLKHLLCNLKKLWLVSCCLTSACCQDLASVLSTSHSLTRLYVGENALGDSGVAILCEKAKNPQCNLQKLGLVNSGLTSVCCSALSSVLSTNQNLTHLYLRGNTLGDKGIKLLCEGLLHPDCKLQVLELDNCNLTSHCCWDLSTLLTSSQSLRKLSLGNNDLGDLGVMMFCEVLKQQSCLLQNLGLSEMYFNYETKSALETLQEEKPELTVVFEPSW

Row | IC50 [µM] | SMILES
1 | ≤ 1 | CC1CC(C)N1CCS(=O)(=O)NC(=O)Nc1c2c(cc3c1CCC3)CCC2 (centres unmarked) [Example 103, 2-(2,4-Dimethylazetidin-1-yl)-N-((1,2,3,5,6,7-hexahydro-s-indacen-4-yl)carbamoyl)ethane-1-sulfonamide]
2 | ≤ 1 | CC1(C)CCN1CCS(=O)(=O)NC(=O)Nc1c2c(cc3c1CCC3)CCC2 [Example 102, 2-(2,2-Dimethylazetidin-1-yl)-N-((1,2,3,5,6,7-hexahydro-s-indacen-4-yl)carbamoyl)ethane-1-sulfonamide]
3 | ≤ 5 | CCN(CCCCS(=O)(=O)NC(=O)Nc1c2c(cc3c1CCC3)CCC2)Cc1ccccc1 [Example 13, 4-(Benzyl(ethyl)amino)-N-((1,2,3,5,6,7-hexahydro-s-indacen-4-yl)carbamoyl)butane-1-sulfonamide, potassium salt]
4 | ≤ 5 | CN(C)CC(C)(C)CS(=O)(=O)NC(=O)Nc1c2c(cc3c1CCC3)CCC2 [Example 81, 3-(Dimethylamino)-N-((1,2,3,5,6,7-hexahydro-s-indacen-4-yl)carbamoyl)-2,2-dimethylpropane-1-sulfonamide]
5 | ≤ 7.5 | CC(C)n1ccc(CS(=O)(=O)NC(=O)Nc2c3c(cc4c2CCC4)CCC3)n1 [Example 111, N-((1,2,3,5,6,7-Hexahydro-s-indacen-4-yl)carbamoyl)-1-(1-isopropyl-1H-pyrazol-3-yl)methanesulfonamide]
6 | ≤ 5 | O=C(Nc1c2c(cc3c1CCC3)CCC2)NS(=O)(=O)Cc1cccnc1 [Example 20, N-((1,2,3,5,6,7-Hexahydro-s-indacen-4-yl)carbamoyl)-1-(pyridin-3-yl)methanesulfonamide, potassium salt]
7 | ≤ 5 | Cn1cc(CS(=O)(=O)NC(=O)Nc2c3c(cc4c2CCC4)CCC3)cn1 [Example 35, N-((1,2,3,5,6,7-hexahydro-s-indacen-4-yl)carbamoyl)-1-(1-methyl-1H-pyrazol-4-yl)methanesulfonamide]
8 | ≤ 1 | CCN(CC)CCCS(=O)(=O)NC(=O)Nc1c(-c2ccncc2)cc(F)c2c1CCC2 [Example 44, 3-(Diethylamino)-N-((7-fluoro-5-(pyridin-4-yl)-2,3-dihydro-1H-inden-4-yl)carbamoyl)propane-1-sulfonamide]
9 | ≤ 1 | CN1CCCC(CS(=O)(=O)NC(=O)Nc2c3c(cc4c2CCC4)CCC3)C1 (centres unmarked) [Example 83, N-((1,2,3,5,6,7-Hexahydro-s-indacen-4-yl)carbamoyl)-1-(1-methylpiperidin-3-yl)methanesulfonamide]

Row | SMILES | IC50 [µM]
10 | C#CCN(C)CCCS(=O)(=O)NC(=O)Nc1c2c(cc3c1CCC3)CCC2 [Example 73] | ≤ 5

Target: T1, NLRP3
Assay: THP-1 cells pyroptosis assay (LPS + nigericin, resazurin readout)
Format: cell-based
Design: Seed THP-1 cells (25,000 cells/well) containing 1.0 μg/ml LPS in 40 μl of RPMI medium; host or cells: THP-1 cells, LPS-primed and nigericin-stimulated
Details: NLRP3 inhibitory activity in THP-1 cells, 1.0 μg/ml LPS, 5 μM nigericin
Description: It is well established that the activation of NLRP3 leads to cell pyroptosis and this feature plays an important part in the manifestation of clinical disease (Yan-gang Liu et al., Cell Death & Disease, 2017, 8(2), e2579; Alexander Wree et al., Hepatology, 2014, 59(3), 898-910; Alex Baldwin et al., Journal of Medicinal Chemistry, 2016, 59(5), 1691-1710; Ema Ozaki et al., Journal of Inflammation Research, 2015, 8, 15-27; Zhen Xie & Gang Zhao, Neuroimmunology Neuroinflammation, 2014, 1(2), 60-65; Mattia Cocco et al., Journal of Medicinal Chemistry, 2014, 57(24), 10366-10382; T. Satoh et al., Cell Death & Disease, 2013, 4, e644). Therefore, it is anticipated that inhibitors of NLRP3 will block pyroptosis, as well as the release of pro-inflammatory cytokines (e.g. IL-1β) from the cell. THP-1 cells (ATCC # TIB-202) were grown in RPMI containing L-glutamine (Gibco #11835) supplemented with 1 mM sodium pyruvate (Sigma # S8636) and penicillin (100 units/ml)/streptomycin (0.1 mg/ml) (Sigma # P4333) in 10% Fetal Bovine Serum (FBS) (Sigma # F0804). The cells were routinely passaged and grown to confluency (˜10^6 cells/ml). On the day of the experiment, THP-1 cells were harvested and resuspended into RPMI medium (without FBS). The cells were then counted and viability (>90%) checked by Trypan blue (Sigma # T8154). Appropriate dilutions were made to give a concentration of 625,000 cells/ml. To this diluted cell solution was added LPS (Sigma # L4524) to give a […] Final Assay Concentration (FAC). 40 μl of the final preparation was aliquoted into each well of a 96-well plate. The plate thus prepared was used for compound screening. The following method step-by-step assay was followed for compound screening. • 1. Seed THP-1 cells (25,000 cells/well) containing 1.0 μg/ml LPS in 40 μl of RPMI medium (without FBS) in 96-well, black walled, clear bottom cell culture plates coated with poly-D-lysine (VWR #734-0317) • 2. Add 5 μl compound (8 points half-log dilution, with 10 μM top dose) or vehicle (DMSO 0.1% FAC) to the appropriate wells • 3. […] Add 5 μl nigericin (Sigma # N7143) (FAC 5 μM) to all wells • 5. […] At the end of the incubation period, spin plates at 300×g for 3 mins and remove supernatant • 7. Then add 50 μl of resazurin (Sigma # R7017) (FAC 100 μM resazurin in RPMI medium without FBS) and incubate plates for a further 1-2 hrs at 37° C. and 5% CO2 • 8. Plates were read in an Envision reader at Ex 560 nm and Em 590 nm • 9. IC50 data is fitted to a non-linear regression equation (log inhibitor vs response-variable slope 4-parameters) The results of the pyroptosis assay performed are summarised in Table 1 below as THP IC50.

Row | IC50 [nM] | SMILES
11 | 2000 to 10000 | CN1CC2(CC(S(=O)(=O)NC(=O)Nc3c4c(cc5c3CCC5)CCC4)C2)C1 [Example 40, N-((1,2,3,5,6,7-Hexahydro-s-indacen-4-yl)carbamoyl)-2-methyl-2-azaspiro[3.3]heptane-6-sulfonamide, potassium salt]
12 | 2000 to 10000 | CC(C)N1CCC(CS(=O)(=O)NC(=O)Nc2c3c(cc4c2CCC4)CCC3)C1 (centres unmarked) [Example 25, N-((1,2,3,5,6,7-Hexahydro-s-indacen-4-yl)carbamoyl)-1-(1-isopropylpyrrolidin-3-yl)methanesulfonamide, Potassium Salt]
13 | 2000 to 10000 | COc1cc(-c2cc(F)cc(C(C)C)c2NC(=O)NS(=O)(=O)Cc2cccnc2)ccn1 [Example 54, N-((4-Fluoro-2-isopropyl-6-(2-methoxypyridin-4-yl)phenyl)carbamoyl)-1-(pyridin-3-yl)methanesulfonamide]
14 | 2000 to 10000 | CC(C)N1CC2(CC(S(=O)(=O)NC(=O)Nc3c4c(cc5c3CCC5)CCC4)C2)C1 [Example 39, N-((1,2,3,5,6,7-Hexahydro-s-indacen-4-yl)carbamoyl)-2-isopropyl-2-azaspiro[3.3]heptane-6-sulfonamide, potassium salt]
15 | 2000 to 10000 | CC1(C)C2CC[C@@]1(CS(=O)(=O)NC(=O)Nc1c3c(cc4c1CCC4)CCC3)C(N)C2 (stereo partly drawn) [Example 85, 1-((1S)-2-Amino-7,7-dimethylbicyclo[2.2.1]heptan-1-yl)-N-((1,2,3,5,6,7-hexahydro-s-indacen-4-yl)carbamoyl)methanesulfonamide]
16 | 2000 to 10000 | CCN(CCCS(=O)(=O)NC(=O)Nc1c(-c2ccnc(C#N)c2)cc(F)cc1C(C)C)Cc1ccccc1 [Example 46, 3-(Benzyl(ethyl)amino)-N-((2-(2-cyanopyridin-4-yl)-4-fluoro-6-isopropylphenyl)carbamoyl)propane-1-sulfonamide]
17 | 2000 to 10000 | O=C(Nc1c2c(cc3c1CCC3)CCC2)NS(=O)(=O)CCCCN1CCC1 [Example 86, 4-(Azetidin-1-yl)-N-((1,2,3,5,6,7-hexahydro-s-indacen-4-yl)carbamoyl)butane-1-sulfonamide]
18 | 2000 to 10000 | CC(C)c1cc(Cl)cc(C(C)C)c1NC(=O)NS(=O)(=O)CCCN(C)C [Example 108, 3-(Dimethylamino)-N-((4-chloro-2,6-diisopropylphenyl)carbamoyl)propane-1-sulfonamide]
19 | 2000 to 10000 | CC(C)c1cc(F)cc(-c2ccnc(C#N)c2)c1NC(=O)NS(=O)(=O)Cc1cccnc1 [Example 112, N-((2-(2-Cyanopyridin-4-yl)-4-fluoro-6-isopropylphenyl)carbamoyl)-1-(pyridin-3-yl)methanesulfonamide]
20 | 1600 to 2000 | COCCC(=O)N(C)CCCS(=O)(=O)NC(=O)Nc1c2c(cc3c1CCC3)CCC2 [Example 94, N-(3-(N-((1,2,3,5,6,7-Hexahydro-s-indacen-4-yl)carbamoyl)sulfamoyl)propyl)-3-methoxy-N-methylpropanamide]
21 | 1600 to 2000 | O=C(Nc1c2c(cc3c1CCC3)CCC2)NS(=O)(=O)CCCN1CCCCC1 [Example 16, N-((1,2,3,5,6,7-Hexahydro-s-indacen-4-yl)carbamoyl)-3-(piperidin-1-yl)propane-1-sulfonamide, Potassium Salt]
22 | 2000 to 10000 | C[N+](C)(C)CCCS(=O)(=O)NC(=O)Nc1c2c(cc3c1CCC3)CCC2 [Example 66, 3-(N-((1,2,3,5,6,7-Hexahydro-s-indacen-4-yl)carbamoyl)sulfamoyl)-N,N,N-trimethylpropan-1-aminium, Potassium Salt]
23 | 2000 to 10000 | CCN(CC)CCS(=O)(=O)NC(=O)Nc1c2c(cc3c1CCC3)CCC2 [Example 18, 2-(Diethylamino)-N-((1,2,3,5,6,7-hexahydro-s-indacen-4-yl)carbamoyl)ethane-1-sulfonamide, potassium salt]
